Laboratory results taken from US12304897B2, “15-PGDH inhibitors” (KYORIN PHARMACEUTICAL CO., LTD., priority 2019, dated 2025).

target: recombinant human 15-PGDH (Homo sapiens (Human), UniProt P15428); assay: 15-PGDH enzyme inhibition test; format: biochemical; details: 4 nM recombinant human 15-PGDH, 30 μM PGE2, 1 mM NAD+, fluorescence 340/440 nm after 60 min
Description: 15-PGDH Enzyme Inhibition Test
Test compounds and 4 nM recombinant human 15-PGDH (R&D systems) in 50 mM Tris-HCl (pH 8.0) containing 0.01% TWEEN 20 (Sigma) and 0.01% bovine gamma globulin (Sigma) were put into 384 Flat Bottom Black plates (Corning, 3820) and allowed to stand for 12 minutes at room temperature. Then, 30 μM PGE2 (Cayman chemical) and 1 mM NAD^+ (Sigma) were added to start reaction. Sixty minutes after the start of reaction, signals were measured at an excitation wavelength of 340 nm and a fluorescence emission wavelength of 440 nm using Synergy 2 (BioTeck). The intensity of the fluorescent signal obtained when an assay buffer was added in place of the test compounds and NAD^+ was defined as 100% and that obtained with the addition of NAD^+ was defined as 0%.

Chain of recombinant human 15-PGDH (P15428 whole entry): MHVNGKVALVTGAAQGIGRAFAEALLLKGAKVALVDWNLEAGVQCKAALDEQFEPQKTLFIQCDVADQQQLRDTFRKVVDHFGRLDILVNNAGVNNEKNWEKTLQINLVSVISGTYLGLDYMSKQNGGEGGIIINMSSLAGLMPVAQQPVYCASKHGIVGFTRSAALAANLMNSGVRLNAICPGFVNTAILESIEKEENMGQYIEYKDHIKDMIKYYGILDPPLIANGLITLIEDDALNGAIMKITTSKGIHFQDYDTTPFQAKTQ

| SMILES | IC50 |
| --- | --- |
| O=C(c1ccc2c(-c3ccc4c(=O)[nH]ncc4c3)cccc2c1)N1CCCC1 [compound 80] | < 3 nM |
| CC1c2cc(-c3cccc4cc(C(=O)N5CCC(F)(F)CC5)ccc34)ccc2C(=O)N1C (stereo not drawn) [compound 10] | < 3 nM |
| CCN1Cc2cc(-c3cccc4cc(C(=O)N5CCC(F)(F)CC5)ccc34)ccc2C1=O [compound 66] | < 3 nM |
| O=C(c1ccc2c(-c3ccc4c(=O)[nH]ccc4c3)cccc2c1)N1CCC(F)(F)CC1 [compound 110] | < 3 nM |
| CN1Cc2cc(-c3nccc4cc(C(=O)N5CCC(F)(F)CC5)ccc34)ccc2C1=O [compound 156] | 3 to 10 nM |
| Cn1ccc2cc(-c3cccc4cc(C(=O)N5CCC(F)(F)CC5)cnc34)ccc2c1=O [compound 143] | < 3 nM |
| Cn1ncc2cc(-c3cccc4cc(C(=O)N5CCC(F)(F)CC5)ccc34)ccc2c1=O [compound 117] | < 3 nM |
| O=C(c1ccc2c(-c3cc4cc[nH]c(=O)c4cn3)cccc2c1)N1CCC(F)(F)CC1 [compound 111] | < 3 nM |
| COC(=O)c1ccc(-c2cccc3cc(C(=O)N4CCC(F)(F)CC4)ccc23)cc1F [compound 97] | 3 to 10 nM |
| CN1Cc2cc(-c3c(F)ccc4cc(C(=O)N5CCC(F)(F)CC5)ccc34)ccc2C1=O [compound 59] | < 3 nM |
| O=C(c1ccc2c(-c3ccn4c(=O)[nH]nc4c3)cccc2c1)N1CCC(F)(F)CC1 [compound 26] | < 3 nM |
| C[C@@H]1CCN(C(=O)c2ccc3c(-c4ccc5c(c4)CN(C)C5=O)cccc3c2)C1 [compound 58] | < 3 nM |
| Cc1c(-c2cccc3cc(C(=O)N4CCC(F)(F)CC4)ccc23)ccn2c(=O)n(C)nc12 [compound 115] | < 3 nM |
| O=C(c1cnc2c(-c3ccc4c(=O)[nH]oc4c3)cccc2c1)N1CCC(F)(F)CC1 [compound 141] | < 3 nM |
| CN1Cc2cc(-c3cccc4cc(C(=O)N5CCC(F)(F)CC5)cnc34)ccc2C1=O [compound 99] | 3 to 10 nM |
| Cn1ncc2cc(-c3cccc4cc(C(=O)N5CCC(F)(F)CC5)cnc34)cnc2c1=O [compound 145] | 3 to 10 nM |
| CN1Cc2cc(-c3cccc4cc(C(=O)N5CCC[C@@H](F)C5)ccc34)ccc2C1=O [compound 63] | < 3 nM |
| CN1Cc2cc(-c3cccc4cc(C(=O)N5CCCC5)ccc34)cnc2C1=O [compound 14] | < 3 nM |
| Cn1ncc2cc(-c3cccc4cc(C(=O)N5CCC(F)(F)CC5)cnc34)ccc2c1=O [compound 147] | < 3 nM |
| O=C(c1cnc2c(-c3cc4cc[nH]c(=O)c4cn3)cccc2c1)N1CCC(F)(F)CC1 [compound 133] | 3 to 10 nM |
| Cc1ccc2cc(C(=O)N3CCC(F)(F)CC3)ccc2c1-c1ccc2c(=O)[nH]ncc2c1 [compound 100] | < 3 nM |
| NCCn1ncc2cc(-c3cccc4cc(C(=O)N5CCC(F)(F)CC5)ccc34)ccc2c1=O [compound 162] | < 3 nM |
| O=C(O)c1ncc(-c2cccc3cc(C(=O)N4CCC(F)(F)CC4)ccc23)cn1 [compound 127] | < 3 nM |
| Cn1cc2c(n1)CCN(c1cccc3cc(C(=O)N4CCCCC4)ccc13)C2 [compound 52] | 3 to 10 nM |
| CN1Cc2cc(-c3ccc4cc(C(=O)N5CCC(F)(F)CC5)ccc4c3)ccc2C1=O [compound 73] | ≥ 10 nM |

| SMILES | IC50 |
| --- | --- |
| Cn1nc2n(c1=O)CCN(c1cccc3cc(C(=O)N4CCCCC4)cnc13)C2 [compound 90] | 3 to 10 nM |
| CN1Cc2cc(-c3cccc4cc(C(=O)N5CCCC5)ccc34)ccc2C1=O [compound 43] | < 3 nM |
| CN1Cc2cc(-c3ccnc4cc(C(=O)N5CCC(F)(F)CC5)ccc34)ccc2C1=O [compound 42] | < 3 nM |
| CC1CN(C(=O)c2ccc3c(-c4ccc5c(=O)[nH]ncc5c4)cccc3c2)CCC1(F)F (stereo not drawn) [compound 119] | < 3 nM |
| Cn1ncc2cc(-c3cccc4cc(C(=O)N5CCC(F)(F)CC5)ccc34)cnc2c1=O [compound 17] | < 3 nM |
| CC1CCN(C(=O)c2ccc3c(-c4cnc5c(c4)CN(C)C5=O)cccc3c2)CC1 [compound 125] | < 3 nM |
| CC1CCN(C(=O)c2ccc3c(-c4ccc5c(=O)[nH]ncc5c4)cccc3c2)CC1 [compound 84] | < 3 nM |
| CCN(CC)C(=O)c1ccc2c(-c3cnc4c(c3)CN(C)C4=O)cccc2c1 [compound 154] | < 3 nM |
| O=C(c1ccc2c(-c3ccc4c(=O)[nH]ncc4c3)c(F)ccc2c1)N1CCC(F)(F)CC1 [compound 87] | < 3 nM |
| Cc1n[nH]c(=O)c2ccc(-c3cccc4cc(C(=O)N5CCC(F)(F)CC5)ccc34)cc12 [compound 83] | < 3 nM |
| O=C(c1ccc2c(-c3ccc4ncccc4c3)cccc2c1)N1CCC(F)(F)CC1 [compound 76] | < 3 nM |
| C[C@H]1CCCN(C(=O)c2ccc3c(-c4ccc5c(=O)[nH]ccc5c4)cccc3c2)C1 [compound 31] | < 3 nM |
| O=C(c1ccc2ccc(-c3ccc4c(=O)[nH]ccc4c3)cc2c1)N1CCC(F)(F)CC1 [compound 139] | < 3 nM |
| O=C(c1ccc2c(N3CCc4ncccc4C3)cccc2c1)N1CCCCC1 [compound 50] | < 3 nM |
| O=C(c1cnc2c(-c3cnc4c(=O)[nH]ccc4c3)cccc2c1)N1CCC(F)(F)CC1 [compound 132] | < 3 nM |
| CN(C)C(=O)c1ccc2c(-c3ccn4c(=O)n(C)nc4c3)cccc2c1 [compound 166] | 3 to 10 nM |
| CN1Cc2cc(-c3cccc4nc(C(=O)N5CCCCC5)ccc34)ccc2C1=O [compound 70] | ≥ 10 nM |
| O=C(c1ccc2c(-c3cnc4c(=O)[nH]ccc4c3)cccc2c1)N1CCC(F)(F)CC1 [compound 67] | < 3 nM |
| O=C(c1ccc2c(-c3ccc4c(c3)CN(CCO)C4=O)cccc2c1)N1CCC(F)(F)CC1 [compound 30] | < 3 nM |
| C[C@@H]1CCN(C(=O)c2ccc3c(N4CCc5ncccc5C4)cccc3c2)C1 [compound 108] | < 3 nM |
| C[C@H]1CCCN(C(=O)c2ccc3c(N4CCn5c(nn(CC(F)F)c5=O)C4)cccc3c2)C1 [compound 104] | < 3 nM |
| CN1Cc2cc(-c3cncc4cc(C(=O)N5CCC(F)(F)CC5)ccc34)ccc2C1=O [compound 120] | < 3 nM |
| O=C(c1ccc2c(-c3cnc4c(=O)[nH]cnc4c3)cccc2c1)N1CCC(F)(F)CC1 [compound 128] | < 3 nM |
| CN1Cc2nc(-c3cccc4cc(C(=O)N5CCC(F)(F)CC5)ccc34)ccc2C1=O [compound 32] | < 3 nM |
| Cn1cnc2cc(-c3cccc4cc(C(=O)N5CCC(F)(F)CC5)ccc34)cnc2c1=O [compound 142] | < 3 nM |

| SMILES | IC50 |
| --- | --- |
| Cc1cc2ncccc2cc1-c1cccc2cc(C(=O)N3CCC(F)(F)CC3)ccc12 [compound 36] | ≥ 10 nM |
| Cc1nc2c(o1)CCN(c1cccc3cc(C(=O)N4CCCCC4)ccc13)C2 [compound 51] | 3 to 10 nM |
| Cn1nc2n(c1=O)CCN(c1cccc3cc(C(=O)N4CCC(F)(F)CC4)ccc13)C2 [compound 75] | < 3 nM |
| CN1Cc2cc(-c3cccc4cc(C(=O)N5CC6(CCC6)C5)ccc34)cnc2C1=O [compound 150] | < 3 nM |
| Cn1cnc2cc(-c3cccc4cc(C(=O)N5CCC(F)(F)CC5)ccc34)ccc2c1=O [compound 38] | < 3 nM |
| C[C@@H]1CCCN(C(=O)c2ccc3c(N4CCc5ncccc5C4)cccc3c2)C1 [compound 91] | < 3 nM |
| Cn1ccc2cc(-c3c(F)ccc4cc(C(=O)N5CCC(F)(F)CC5)ccc34)ncc2c1=O [compound 157] | 3 to 10 nM |
| O=C(c1ccc2c(N3CCn4c(nn(CC(F)F)c4=O)C3)cccc2c1)N1CCCCC1 [compound 19] | < 3 nM |
| O=C(c1ccc2c(-c3cc4cc[nH]c(=O)c4cn3)c(F)ccc2c1)N1CCC(F)(F)CC1 [compound 86] | < 3 nM |
| O=C1NCc2nc(-c3cccc4cc(C(=O)N5CCC(F)(F)CC5)ccc34)ccc21 [compound 101] | < 3 nM |
| CN1Cc2cc(-c3cccc4cc(C(=O)N5CCCC(F)(F)C5)ccc34)ccc2C1=O [compound 54] | < 3 nM |
| O=C(c1ccc2c(-c3ccc4c(=O)n(CCO)ncc4c3)cccc2c1)N1CCC(F)(F)CC1 [compound 118] | < 3 nM |
| COC(=O)CN1Cc2cc(-c3cccc4cc(C(=O)N5CCC(F)(F)CC5)ccc34)ccc2C1=O [compound 44] | < 3 nM |
| O=C(c1ccc2c(N3CCn4c(nn(CC(F)F)c4=O)C3)cccc2c1)N1CCCC2CC21 (stereo not drawn) [compound 6] | < 3 nM |
| Cn1cnc2c1CCN(c1cccc3cc(C(=O)N4CCCCC4)ccc13)C2 [compound 95] | 3 to 10 nM |
| COCn1nc2cc(-c3cccc4cc(C(=O)N5CCC(F)(F)CC5)ccc34)ccn2c1=O [compound 129] | < 3 nM |
| Cn1nc2n(c1=O)CCN(c1cccc3cc(C(=O)N4CCCCC4)ccc13)C2 [compound 74] | < 3 nM |
| O=C(c1ccc2c(N3CCn4c(nn(CC(F)F)c4=O)C3)cccc2c1)N1CCC[C@H](C(F)(F)F)C1 [compound 93] | < 3 nM |
| O=C(c1ccc2c(-c3cnc4c(=O)[nH]ncc4c3)c(F)ccc2c1)N1CCC(F)(F)CC1 [compound 102] | 3 to 10 nM |
| Cn1ccc2cc(-c3cccc4cc(C(=O)N5CCC(F)(F)CC5)ccc34)cnc2c1=O [compound 15] | < 3 nM |
| CN1CC2CN(c3cccc4cc(C(=O)N5CCCCC5)ccc34)CCN2C1=O (stereo not drawn) [compound 96] | 3 to 10 nM |
| CN1Cc2cc(-c3cncc4cc(C(=O)N5CCCCC5)ccc34)ccc2C1=O [compound 69] | < 3 nM |
| Cc1ccc2cc(C(=O)N3CCC(F)(F)CC3)ccc2c1-c1cnc2c(c1)CN(C)C2=O [compound 16] | 3 to 10 nM |
| O=C(c1ccc2c(-c3ccc4c(ccc[n+]4[O-])c3)cccc2c1)N1CCC(F)(F)CC1 [compound 71] | < 3 nM |
| O=C(c1ccc2c(-c3ccn4c(=O)[nH]nc4c3)cccc2c1)N1CCCCC1 [compound 109] | < 3 nM |
